These results are taken from patent US11427558B1, “Indazoles and azaindazoles as LRRK2 inhibitors” (ESCAPE Bio, Inc., priority 2019, dated 2022).

Experiment [1] addresses Recombinant wild type LRRK2 protein (Homo sapiens (Human), UniProt Q5S007). Briefly: LRRK2 kinase activity, LanthaScreen TR-FRET assay (wild type). It is filed as biochemical. Particulars: LRRKtide 400 nM, 25 μM ATP, 60 min; read-out: LRRK2 WT IC50. Put shortly:
(§1)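 Recombinant human wild-type or G2019S LRRK2 phosphorylated fluorescein-labelled LRRKtide (ERM-based) with ATP and serially diluted compound for 60 min at room temperature.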
Background: In TR-FRET formats the signal depends on donor and acceptor labels being close together.

The target in experiment [2] is Recombinant G2019S-LRRK2 protein (Homo sapiens (Human), UniProt Q5S007, G2019S). Put plainly: LRRK2 kinase activity, LanthaScreen TR-FRET assay (G2019S). The experiment is classed as biochemical. Particulars: LRRKtide 400 nM, 25 μM ATP, 60 min. Put shortly: as §1
Recombinant G2019S-LRRK2 protein, sequence (Q5S007 whole entry G2019S): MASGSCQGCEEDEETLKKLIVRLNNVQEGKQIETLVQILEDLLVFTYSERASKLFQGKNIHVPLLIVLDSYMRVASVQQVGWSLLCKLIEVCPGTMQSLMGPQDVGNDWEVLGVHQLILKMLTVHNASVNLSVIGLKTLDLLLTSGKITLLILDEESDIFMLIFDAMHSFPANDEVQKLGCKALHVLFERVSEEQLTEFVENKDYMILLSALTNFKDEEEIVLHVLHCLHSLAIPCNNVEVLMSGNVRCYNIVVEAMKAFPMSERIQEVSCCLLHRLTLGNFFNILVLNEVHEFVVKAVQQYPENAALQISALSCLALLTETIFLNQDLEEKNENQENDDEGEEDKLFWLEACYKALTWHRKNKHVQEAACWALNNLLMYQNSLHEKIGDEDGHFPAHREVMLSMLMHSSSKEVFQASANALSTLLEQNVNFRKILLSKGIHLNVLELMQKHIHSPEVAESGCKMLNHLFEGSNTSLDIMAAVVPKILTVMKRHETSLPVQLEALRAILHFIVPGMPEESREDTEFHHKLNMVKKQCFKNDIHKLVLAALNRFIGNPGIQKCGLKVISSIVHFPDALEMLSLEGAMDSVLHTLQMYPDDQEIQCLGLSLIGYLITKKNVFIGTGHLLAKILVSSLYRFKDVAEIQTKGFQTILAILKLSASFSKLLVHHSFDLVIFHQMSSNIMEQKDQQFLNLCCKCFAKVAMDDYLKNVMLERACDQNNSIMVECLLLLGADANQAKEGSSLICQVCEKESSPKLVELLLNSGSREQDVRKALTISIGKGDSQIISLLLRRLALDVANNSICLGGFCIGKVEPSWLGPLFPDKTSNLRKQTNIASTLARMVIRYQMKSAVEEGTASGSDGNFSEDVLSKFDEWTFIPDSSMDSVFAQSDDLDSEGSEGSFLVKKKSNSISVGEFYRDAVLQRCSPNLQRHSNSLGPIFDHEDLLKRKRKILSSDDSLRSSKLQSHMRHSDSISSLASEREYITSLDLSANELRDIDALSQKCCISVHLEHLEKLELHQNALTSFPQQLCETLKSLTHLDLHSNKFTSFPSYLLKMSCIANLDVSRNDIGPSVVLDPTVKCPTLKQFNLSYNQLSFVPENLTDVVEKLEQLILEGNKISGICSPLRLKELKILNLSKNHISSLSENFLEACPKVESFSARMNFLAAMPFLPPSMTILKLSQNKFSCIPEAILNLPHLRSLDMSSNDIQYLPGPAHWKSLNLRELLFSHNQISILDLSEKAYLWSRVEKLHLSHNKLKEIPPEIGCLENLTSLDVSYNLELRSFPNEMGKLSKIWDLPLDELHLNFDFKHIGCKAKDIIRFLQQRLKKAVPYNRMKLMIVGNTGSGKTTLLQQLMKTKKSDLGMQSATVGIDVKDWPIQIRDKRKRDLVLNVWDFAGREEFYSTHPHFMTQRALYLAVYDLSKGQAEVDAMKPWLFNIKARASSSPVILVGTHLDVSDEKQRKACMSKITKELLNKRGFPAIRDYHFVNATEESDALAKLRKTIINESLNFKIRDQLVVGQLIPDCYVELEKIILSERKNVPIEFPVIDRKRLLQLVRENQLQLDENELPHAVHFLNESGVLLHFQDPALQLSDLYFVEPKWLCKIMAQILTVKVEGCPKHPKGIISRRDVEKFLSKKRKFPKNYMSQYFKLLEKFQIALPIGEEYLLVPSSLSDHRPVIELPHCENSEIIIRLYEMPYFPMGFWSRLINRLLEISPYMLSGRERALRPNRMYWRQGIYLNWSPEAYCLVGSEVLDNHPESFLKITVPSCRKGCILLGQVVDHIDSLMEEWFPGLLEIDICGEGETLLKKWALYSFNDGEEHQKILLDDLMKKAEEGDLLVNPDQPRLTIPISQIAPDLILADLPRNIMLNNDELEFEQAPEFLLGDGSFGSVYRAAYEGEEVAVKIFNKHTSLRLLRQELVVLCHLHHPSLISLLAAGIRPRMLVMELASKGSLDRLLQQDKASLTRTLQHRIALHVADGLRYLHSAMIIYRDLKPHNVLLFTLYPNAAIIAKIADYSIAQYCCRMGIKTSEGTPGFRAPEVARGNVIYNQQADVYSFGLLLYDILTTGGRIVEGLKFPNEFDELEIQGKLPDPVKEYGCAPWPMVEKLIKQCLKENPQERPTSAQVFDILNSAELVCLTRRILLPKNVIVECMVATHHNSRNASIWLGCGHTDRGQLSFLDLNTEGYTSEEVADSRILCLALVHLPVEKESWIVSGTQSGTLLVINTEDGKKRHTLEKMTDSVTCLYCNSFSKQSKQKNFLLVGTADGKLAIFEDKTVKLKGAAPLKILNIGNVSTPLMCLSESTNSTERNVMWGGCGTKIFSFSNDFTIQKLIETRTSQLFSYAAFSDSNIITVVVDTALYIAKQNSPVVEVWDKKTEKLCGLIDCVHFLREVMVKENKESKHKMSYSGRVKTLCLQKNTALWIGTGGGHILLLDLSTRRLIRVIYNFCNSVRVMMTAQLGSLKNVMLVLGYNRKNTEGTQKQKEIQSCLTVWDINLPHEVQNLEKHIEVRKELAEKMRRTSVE

Recombinant wild type LRRK2 protein, sequence (Q5S007 whole entry): as the sequence (Q5S007 whole entry G2019S) above, with S2019G counted along it

As a reminder, the IC50 is the concentration at which inhibition is half-maximal. In the case of `COc1cc(C#N)ccc1C(=O)Nc1ccc2[nH]nc(-c3cnn(C(F)F)c3)c2c1` [Example 189, 4-Cyano-N-(3-(1-(difluoromethyl)-1H-pyrazol-4-yl)-1H-indazol-5-yl)-2-methoxybenzamide], the 50% inhibitory concentration (IC50) in experiment [1] and in experiment [2] was less than 100 nM in each case.

For `COc1ccccc1-c1n[nH]c2ccc(NC(=O)c3ncc(C#N)cc3C)cc12` [Example 99, 5-Cyano-N-(3-(2-methoxyphenyl)-1H-indazol-5-yl)-3-methylpicolinamide], the IC50 was in the range of 1000 to 10000 nM in experiment [1] and 100 to 1000 nM in experiment [2].

For `N#Cc1ccc(F)c(C(=O)Nc2ccc3[nH]nc(-c4cnn(C(F)F)c4)c3c2)c1F` [Example 163, 3-Cyano-N-(3-(1-(difluoromethyl)-1H-pyrazol-4-yl)-1H-indazol-5-yl)-2,6-difluorobenzamide], the IC50 in experiment [1] and in experiment [2] was less than 100 nM throughout.

Take `Cc1oc(C#N)cc1C(=O)Nc1ccc2[nH]nc(-c3ccccc3)c2c1` [Example 27, 5-Cyano-2-methyl-N-(3-phenyl-1H-indazol-5-yl)furan-3-carboxamide]: the IC50 in experiment [1] was 100 to 1000 nM; in experiment [2], less than 100 nM.

Turning to `COc1cccc(-c2n[nH]c3ccc(NC(=O)c4ncc(C#N)cc4C4CC4)cc23)c1` [Example 311, 5-Cyano-3-cyclopropyl-N-(3-(3-methoxyphenyl)-1H-indazol-5-yl)picolinamide], the IC50 in experiment [1] was 100 to 1000 nM; in experiment [2], less than 100 nM.

As to `Cc1ccc(C#N)nc1C(=O)Nc1ccc2[nH]nc(-c3ccoc3)c2c1` [Example 148, 6-Cyano-N-(3-(furan-3-yl)-1H-indazol-5-yl)-3-methylpicolinamide], the IC50 in experiment [1] and in experiment [2] was less than 100 nM in each case.

Turning to `COc1ccc(-c2n[nH]c3ccc(NC(=O)c4ncc(C#N)cc4C)cc23)cc1` [Example 47, 5-Cyano-N-(3-(4-methoxyphenyl)-1H-indazol-5-yl)-3-methylpicolinamide], the values for the IC50 in experiment [1] and in experiment [2] were 100 to 1000 nM and less than 100 nM, respectively.

With `Cc1c(C#N)cnc(C(=O)Nc2ccc3[nH]nc(-c4cnn(C(C)C)c4)c3c2)c1C` [Example 217, 5-Cyano-N-(3-(1-isopropyl-1H-pyrazol-4-yl)-1H-indazol-5-yl)-3,4-dimethylpicolinamide], the IC50 in experiment [1] and in experiment [2] was less than 100 nM each time.

As to `CC(C)c1cc(C#N)cnc1C(=O)Nc1ccc2[nH]nc(-c3cnco3)c2c1` [Example 251, 5-Cyano-3-isopropyl-N-(3-(oxazol-5-yl)-1H-indazol-5-yl)picolinamide], the IC50 in experiment [1] is 100 to 1000 nM; in experiment [2], less than 100 nM.

Regarding `COc1n[nH]c2ccc(NC(=O)c3nc(Br)c(C#N)c(C)c3C)cc12` [Example 329, 6-Bromo-5-cyano-N-(3-methoxy-1H-indazol-5-yl)-3,4-dimethylpicolinamide], the IC50 in experiment [1] and in experiment [2] was less than 100 nM each time.

`N#Cc1cnc(C(=O)Nc2ccc3[nH]nc(-c4cnoc4)c3c2)c2c1CCC2` [Example 218, 4-cyano-N-(3-(isoxazol-4-yl)-1H-indazol-5-yl)-6,7-dihydro-5H-cyclopenta[c]pyridine-1-carboxamide]: the IC50 in experiment [1] was 1000 to 10000 nM; in experiment [2], less than 100 nM.

Take `N#Cc1ccc(O)c(C(=O)Nc2ccc3[nH]nc(-c4ccoc4)c3c2)c1` [Example 125, 5-Cyano-N-(3-(furan-3-yl)-1H-indazol-5-yl)-2-hydroxybenzamide]: the IC50 in experiment [1] and in experiment [2] was 100 to 1000 nM throughout.

In the case of `Cc1c(Cl)c(C(=O)Nc2ccc3[nH]nc(C4CC4)c3c2)nc(Cl)c1C#N` [Example 331, 3,6-Dichloro-5-cyano-N-(3-cyclopropyl-1H-indazol-5-yl)-4-methylpicolinamide], the IC50 in experiment [1] and in experiment [2] was less than 100 nM throughout.

Turning to `Cc1cc(C#N)cnc1C(=O)Nc1ccc2[nH]nc(-c3cnn(C4CCOCC4)c3)c2c1` [Example 33, 5-cyano-3-methyl-N-(3-(1-(tetrahydro-2H-pyran-4-yl)-1H-pyrazol-4-yl)-1H-indazol-5-yl)picolinamide], the IC50 in experiment [1] and in experiment [2] was less than 100 nM throughout.
